Measurements reported in patent US8981131B2, “Tricyclic compounds for the treatment of inflammatory disorders” (Piramal Enterprises Limited, priority 2007, dated 2015).
Where a name gives a salt, the structure may show the parent alone.

Tests used:
Settings in all cases: LPS (1 μg/mL)-stimulated hPBMCs, 5 hours, ELISA
TNF-α = TNF-α inhibition in LPS-stimulated human peripheral blood mononuclear cells (primary screening); format: cell-based
Description: (§1) TNF-α production by lipopolysaccharides (LPS) in hPBMCs was measured according to the method described by Jansky, L. et al (Physiol. Res. 52: 593-598, 2003), incorporated herein by reference. Blood was collected from healthy donors into Potassium EDTA vacutainer tubes (BD vacutainer). The PBMCs were isolated using gradient centrifugation in Histopaque-1077 solution (Sigma). Isolated PBMCs were suspended in RPMI 1640 culture medium (Gibco BRL, Pasley, UK) containing 10% fetal bovine serum (FBS) (Hyclone, Utah, USA), 100 U/ml penicillin (Sigma Chemical Co. St Louis, Mo.) and 100 μg/ml streptomycin (Sigma Chemical Co. St Louis, Mo.). The cell concentration was adjusted to 1×10^6 cells/mL. The viability as determined by trypan blue dye exclusion was uniformly ≧98%. The cell suspension (100 μL) was added to the wells of a 96-well culture plate. Following cell plating, 79 μL of the culture medium and 1 μL of eight different concentrations of the test compounds (final concentration 0.03, 0.1, 0.3, 1, 3, 10, 30, 100 μM) dissolved in DMSO (dimethylsulfoxide, Sigma, Mo., USA) were added to the cells. The final concentration of DMSO was adjusted to 0.5%. The vehicle (0.5% DMSO) was used as control. Rolipram (30, 100 μM) was used as a standard compound. The plates were incubated for 30 min at 37° C. in an atmosphere of 5% CO2. Finally, 20 μL (10 μg/mL) per well of LPS, (Escherchia coli 0127:B8, Sigma Chemical Co., St. Louis, Mo.) was added, for a final concentration of 1 μg/mL. The plates were incubated at 37° C. for 5 hours in an atmosphere of 5% CO2. To assess the cytotoxic effect of the test compounds, the cellular viability test was performed using MTS (3-(4,5-dimethylthiazol-2-yl)-5-(3-carboxymethoxyphenyl)-2-(4-sulfonyl)-2H-tetrazolium) reagent after 5 hours of incubation. Supernatants were harvested and assayed for TNF-α, IL-1β, IL-6 and IL-8 by ELISA as described by the manufacturer. (OptiEIA ELISA sets, BD Biosciences, Pharmingen). The 50% inhibitory concentration (IC50) values were calculated by a nonlinear regression method using GraphPad software (Prism 3.03)

IL-1β = IL-1β released by LPS-stimulated hPBMCs; format: cell-based, Human
Description: as §1

IL-6 = IL-6 released by LPS-stimulated hPBMCs; format: cell-based, Human
Description: as §1

IL-8 = IL-8 released by LPS-stimulated hPBMCs; format: cell-based, Human
Description: as §1

Structure (SMILES)	IC50 (TNF-α; Homo sapiens, PBMC)	further results
CC12CCCC3(C)OC13C1OC(=O)C(CN3CCCCC3)C1(O)CC2 (centres unmarked) [Compound of example 18, 13-(Piperidin-1-yl)-4,5-epoxy-7-hydroxyeudesm-6,12-olide]		IC50 (TNF-α): 400 nM; IC50 (IL-1β): 200 nM; IC50 (IL-6): 900 nM; IC50 (IL-8): 9200 nM
CC1=C2[C@@H]3OC(=O)C(CN4CC[S+]([O-])CC4)C3(O)CC[C@@]2(C)CCC1 (stereo partly drawn) [Compound of example 25, (5aR,9bS)-3a-Hydroxy-5a,9-dimethyl-3-(thiomorpholino-1-oxide-methyl)-3,3a,4,5,5a,6,7,8-octahydronaphtho[1,2-b]furan-2(9bH)-one]		IC50 (TNF-α): 3300 nM
CC1=C2[C@@H]3OC(=O)C(CN4CCN(Cc5ccccc5)CC4)C3(O)CC[C@@]2(C)CCC1 (stereo partly drawn) [Compound of example 27, (5aR,9bS)-3-((4-Benzylpiperazin-1-yl)methyl)-3a-hydroxy-5a,9-dimethyl-3,3a,4,5,5a,6,7,8-octahydronaphtho[1,2-b]furan-2(9bH)-one]	300 nM	
CC1=C2[C@@H]3OC(=O)C(CN4CCN(Cc5c(C)cccc5C)CC4)C3(O)CC[C@@]2(C)CCC1 (stereo partly drawn) [Compound of example 30, (5aR,9bS)-3-((4-(2,6-dimethylbenzyl)piperazin-1-yl)methyl)-3a-hydroxy-5a,9-dimethyl-3,3a,4,5,5a,6,7,8-octahydronaphtho[1,2-b]furan-2(9bH)-one]	800 nM	
CC1=C2[C@@H]3OC(=O)C(CN4CCN(Cc5ccccc5F)CC4)C3(O)CC[C@@]2(C)CCC1 (stereo partly drawn) [Compound of example 33, (5aR,9bS)-3-((4-(2-fluorobenzyl)piperazin-1-yl)methyl)-3a-hydroxy-5a,9-dimethyl-3,3a,4,5,5a,6,7,8-octahydronaphtho[1,2-b]furan-2(9bH)-one]	300 nM	
CC1=C2[C@@H]3OC(=O)C(CN4CCN(Cc5c(F)cccc5C(F)(F)F)CC4)C3(O)CC[C@@]2(C)CCC1 (stereo partly drawn) [Compound of example 36, (5aR,9bS)-3-((4-(2-fluoro-6-(trifluoromethyl)benzyl)piperazin-1-yl)methyl)-3a-hydroxy-5a,9-dimethyl-3,3a,4,5,5a,6,7,8-octahydronaphtho[1,2-b]furan-2(9bH)-one]	1100 nM	
COc1cc(CN2CCN(CC3C(=O)O[C@H]4C5=C(C)CCC[C@]5(C)CCC34O)CC2)c(CO)c(OC)c1 (stereo partly drawn) [Compound of example 38, (5aR,9bS)-3a-hydroxy-3-((4-(2-(hydroxymethyl)-3,5-dimethoxybenzyl)piperazin-1-yl)methyl)-5a,9-dimethyl-3,3a,4,5,5a,6,7,8-octahydronaphtho[1,2-b]furan-2(9bH)-one]	800 nM	
CC1=C2[C@@H]3OC(=O)C(CN4CCN(c5ccccn5)CC4)C3(O)CC[C@@]2(C)CCC1 (stereo partly drawn) [Compound of example 53, (5aR,9bS)-3a-Hydroxy-5a,9-dimethyl-3-((4-(pyridin-2-yl)piperazin-1-yl)methyl)-3,3a,4,5,5a,6,7,8-octahydronaphtho[1,2-b]furan-2(9bH)-one]	800 nM	
CC1=C2[C@@H]3OC(=O)C(CN4CCN(CC5C(=O)O[C@H]6C7=C(C)CCC[C@]7(C)CCC56O)CC4)C3(O)CC[C@]2(C)CCC1 (stereo partly drawn) [Compound of example 54, (5aS,9bS)-3a-Hydroxy-3-((4-(((5aR,9bS)-3a-hydroxy-5a,9-dimethyl-2-oxo-2,3,3a,4,5,5a,6,7,8,9b-decahydronaphtho[1,2-b]furan-3-yl)methyl)piperazin-1-yl)methyl)-5a,9-dimethyl-3,3a,4,5,5a,6,7,8-octahydronaphtho[1,2-b]furan-2(9bH)-one]	600 nM	IC50 (IL-1β; Homo sapiens): 200 nM; IC50 (IL-6; Homo sapiens): 2100 nM; IC50 (IL-8; Homo sapiens): 11700 nM
CC1=C2[C@H]3OC(=O)C(CNCC4C(=O)O[C@H]5C6=C(C)CCC[C@]6(C)CCC45O)C3(O)CC[C@]2(C)CCC1 (stereo partly drawn) [Compound of example 55, (5aS,9bR)-3a-Hydroxy-3-((((5aR,9bS)-3a-hydroxy-5a,9-dimethyl-2-oxo-2,3,3a,4,5,5a,6,7,8,9b-decahydronaphtho[1,2-b]furan-3-yl)methylamino)methyl)-5a,9-dimethyl-3,3a,4,5,5a,6,7,8-octahydronaphtho[1,2-b]furan-2(9bH)-one hydrochloride]	1200 nM	IC50 (IL-1β; Homo sapiens): 310 nM; IC50 (IL-6; Homo sapiens): 3100 nM; IC50 (IL-8; Homo sapiens): 29000 nM

Second part, led by results:

IC50 (TNF-α; Homo sapiens, PBMC)	Structure (SMILES)	further results
500 nM	CC(=O)OCC1(O)C(=O)O[C@H]2C3=C(C)CCC[C@]3(C)CCC21O (stereo partly drawn) [Compound of example 3, ((5aR,9bS)-3,3a-Dihydroxy-5a,9-dimethyl-2-oxo-2,3,3a,4,5,5a,6,7,8,9b-decahydronaphtho[1,2-b]furan-3-yl)methyl acetate]	
700 nM	CC1=C2[C@@H]3OC(=O)C(CN4CCCCC4)C3(O)CC[C@@]2(C)CCC1 (stereo partly drawn) [Compound of example 17, (5aR,9bS)-3a-Hydroxy-5a,9-dimethyl-3-(piperidin-1-ylmethyl)-3,3a,4,5,5a,6,7,8-octahydronaphtho[1,2-b]furan-2(9bH)-one]	IC50 (IL-1β; Homo sapiens): 260 nM; IC50 (IL-6; Homo sapiens): 3000 nM; IC50 (IL-8; Homo sapiens): 27600 nM
700 nM	CC1=C2[C@@H]3OC(=O)C(CN4CCOCC4)C3(O)CC[C@@]2(C)CCC1 (stereo partly drawn) [Compound of example 22, (5aR,9bS)-3a-Hydroxy-5a,9-dimethyl-3-(morpholinomethyl)-3,3a,4,5,5a,6,7,8-octahydronaphtho[1,2-b]furan-2(9bH)-one]	
700 nM	CCOC(=O)N1CCN(CC2C(=O)O[C@H]3C4=C(C)CCC[C@]4(C)CCC23O)CC1 (stereo partly drawn) [Compound of example 48, Ethyl 4-(((5aR,9bS)-3a-hydroxy-5a,9-dimethyl-2-oxo-2,3,3a,4,5,5a,6,7,8,9b-decahydronaphtho[1,2-b]furan-3-yl)methyl)piperazine-1-carboxylate hydrochloride]	
2000 nM	COC(=O)CNCC1C(=O)O[C@H]2C3=C(C)CCC[C@]3(C)CCC12O (stereo partly drawn) [Compound of example 58, Methyl 2-(((5aR,9bS)-3a-hydroxy-5a,9-dimethyl-2-oxo-2,3,3a,4,5,5a,6,7,8,9b-decahydronaphtho[1,2-b]furan-3-yl)methylamino)acetate]	
400 nM	CC1=C2[C@@H]3OC(=O)C(CNC4C(O)C(O)C(CO)O[C@H]4O)C3(O)CC[C@@]2(C)CCC1 (stereo partly drawn) [Compound of example 59, (5aR,9bS)-3a-Hydroxy-5a,9-dimethyl-3-(((2R)-2,4,5-trihydroxy-6-(hydroxymethyl)tetrahydro-2H-pyran-3-ylamino)methyl)-3,3a,4,5,5a,6,7,8-octahydronaphtho[1,2-b]furan-2(9bH)-one]	
200 nM	CC1=C2[C@@H]3OC(=O)C(CN(C)CC(O)c4ccc(O)cc4)C3(O)CC[C@@]2(C)CCC1 (stereo partly drawn) [Compound of example 60, (5aR,9bS)-3a-Hydroxy-3-(((2-hydroxy-2-(4-hydroxyphenyl)ethyl)(methyl)amino)methyl)-5a,9-dimethyl-3,3a,4,5,5a,6,7,8-octahydronaphtho[1,2-b]furan-2(9bH)-one]	
